This is an account of results in ChEMBL document CHEMBL1145294, “Genotoxic activity of halogenated phenylglycine derivatives” (Bioorg Med Chem Lett, 2006).

The source made the active and inactive calls. No cut-off for these calls is given here.

The subject of series [1] is Saccharomyces cerevisiae. Description: Cytotoxicity against Saccharomyces cerevisiae rad53-11. Type of series: organism-based. Particulars: in vivo.
The subject of series [2] is Saccharomyces cerevisiae. Description: Cytotoxicity against Saccharomyces cerevisiae rad52. As to conditions: in vivo. Type of series: organism-based.
In series [3] the test system is Saccharomyces cerevisiae. Description: Cytotoxicity against Saccharomyces cerevisiae rad14. Type of series: organism-based. Particulars: in vivo.
Series [4] has as its system Saccharomyces cerevisiae. Description: Cytotoxicity against Saccharomyces cerevisiae rad52-ku80. It counts as organism-based. Particulars: in vivo.
Series [5] deals with Saccharomyces cerevisiae. Description: Cytotoxicity against Saccharomyces cerevisiae mec1-1. It counts as organism-based. Particulars: in vivo.
Series [6] has as its system SF-268. Description: Cytotoxicity against SF268 cells. Particulars: Homo sapiens. It counts as functional, cell-based.
Series [7] concerns NCI-H460. Description: Cytotoxicity against NCI-H460 cells. Type of series: cell-based. Particulars: human.
The subject of series [8] is MCF7. Description: Cytotoxicity against MCF7 cells. It counts as cell-based. Particulars: human.

For `COC(=O)C(NC(=O)c1ccccc1)c1ccc(OC)c(Br)c1` (stereo unspecified), the result in series [1], in series [2], in series [3], in series [4] and in series [5] was Active.
Consider `COC(=O)C(NC(=O)c1ccccc1)c1ccc(OC)c(I)c1` (stereo unspecified), for which the outcome in series [1], in series [2], in series [3], in series [4], in series [5] and in series [7] was Active. The result in series [8] was Active. Besides, in series [6], the outcome was Active.
As to `COC(=O)C(Sc1ccccc1)c1ccc(OC)c(I)c1` (stereo unspecified), the result in series [6] was inactive. The Activity entry in series [7] and in series [8] was “Not Active” throughout.
As for `COC(=O)C(c1ccc(OC)c(I)c1)N1C(=O)c2ccccc2C1=O` (stereo unspecified), the outcome in series [6] was inactive. Also, the Activity entry in series [7] and in series [8] was “Not Active” each time.
As to `O=C(NC(C(=O)O)c1ccc(O)c(I)c1)c1ccccc1` (stereo unspecified), the result in series [6] was inactive. Besides, the Activity entry in series [7] and in series [8] was “Not Active” in each case.
`CC(C)(C)[Si](Oc1ccc(C(NC(=O)c2ccccc2)C(=O)O)cc1I)(c1ccccc1)c1ccccc1` (stereo unspecified): the outcome in series [6] was Active. In addition, the outcome in series [7] and in series [8] was Active.
As for `COC(=O)Cc1cc(I)c(OC)c(I)c1`, the result in series [6] was inactive. For the same molecule, the Activity entry in series [7] and in series [8] was “Not Active” throughout.
As for `COC(=O)C(OC(C)=O)c1ccc(OC)c(I)c1` (stereo unspecified), the outcome in series [6] was inactive. Besides, the Activity entry in series [7] and in series [8] was “Not Active” each time.
Take `COC(=O)Cc1ccc(OC)c(I)c1`: in series [6], the result was inactive. Besides, the Activity entry in series [7] and in series [8] was “Not Active” in each case.
Turning to `COc1ccc(C(O)C(=O)O)cc1I` (stereo unspecified), in series [6], the result was inactive. The Activity entry in series [7] and in series [8] was “Not Active” in each case.
On to `COc1ccc(C(OC(C)=O)C(=O)O)cc1I` (stereo unspecified), for which the result in series [6] was inactive. Also, the Activity result in series [7] and in series [8] was “Not Active” in each case.
Turning to `COC(=O)Nc1ccc(C(NC(=O)c2ccccc2)C(=O)O)cc1I` (stereo unspecified), in series [6], the outcome was inactive. Besides, the Activity result in series [7] and in series [8] was “Not Active” in each case.
For the molecule `COC(=O)C(O)c1ccc(OC)c(I)c1` (stereo unspecified), the outcome in series [6] was inactive. Besides, the Activity result in series [7] and in series [8] was “Not Active” throughout.
